In brackets after ≈: the same amount, converted by molar mass. Read-outs that look alike come from different tables or passages of the source. One block for each compound: values may come before it.
What was measured:
[1] = Human liver microsomal stability experiment; assay type: in vitro ADME; conditions: human liver microsomes; for half-life / half-life at 1 µM / T1/2: NADPH, 37 °C; for CLint scaled: 45 mg/g, 20.7 g/kg scaling
Method: This experiment was intended to investigate the metabolic stability of the test compounds in human liver microsomes. The materials used in the experiment included 10 mM solutions of the test compounds and the control sample, human liver microsomes, and reduced nicotinamide adenine dinucleotide phosphate (NADPH) powder. In the experiment, a 100 mM potassium phosphate buffer was used as the buffer system.
The liver microsome working solution was prepared by diluting the liver microsome stock solution to 0.75 mg/mL using the 100 mM potassium phosphate buffer. Then, 5 µL of the 10 mM stock solution of the test compound was taken, and 195 µL of methanol was added. The mixture was well mixed to prepare a working solution A with a concentration of 0.25 mM. Subsequently, the working solution A was diluted to 1.5 µM using the liver microsome working solution to prepare a compound-liver microsome mixed solution. Additionally, NADPH powder was dissolved in 100 mM potassium phosphate buffer to prepare a 6 mM NADPH solution. The compound-liver microsome mixed solution was dispensed into a 96-well plate at 30 µL/well, with labeled time points of 0 min, 30 min, and 60 min. For 0-min samples, 180 µL of acetonitrile containing 100 ng/mL tolbutamide and 15 µL of the NADPH solution were added directly. The 96-well plate and the NADPH solution were then preheated under a 37 °C water bath for 5 min. After the preheating, 15 µL of the NADPH solution was added to each of the 30-min and 60-min sample wells. The plate was gently shaken for mixing and then incubated under the 37 °C water bath for the corresponding time. After the incubation was completed, 180 µL of acetonitrile containing 100 ng/mL tolbutamide was added to each sample well. The plate was sealed with a sealing film, shaken for 10 min (800 rpm/min), and then centrifuged for 15 min (4000 rpm). After the centrifugation, 50 µL of the supernatant was taken and added to a 96-well plate containing 150 µL of deionized water, and then the plate was sealed and shaken for 10 min (800 rpm) for uniform mixing. Subsequently, sample analysis was performed using liquid chromatography-tandem mass spectrometry (LC-MS/MS). […] For humans, the microsome protein-to-liver weight ratio was 45 mg/g, and the liver-to-body weight ratio was 20.7 g/kg.

[2] = Solubility experiment (HPLC, external standard); assay type: physicochemical; conditions: 37 °C, 24 h
Procedure, shortened: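 Solid compound (about 1 mg per 1 mL medium) was shaken at 37 °C for 24 h in pH 1.2, 4.5 or 7.4 media, then centrifuged and the supernatant diluted with acetonitrile/water 50/50. Concentration in μg/mL was found by HPLC against an external standard prepared from a DMSO stock.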

[3] = molecular target: KRAS WT-cRAF (Homo sapiens, UniProt P01116+P62937); test: Assay for binding of KRAS to cRAF (HTRF, with Cyclophilin A), KRAS WT
KRAS WT-cRAF, sequence (P01116 1-188 isoform P01116-2): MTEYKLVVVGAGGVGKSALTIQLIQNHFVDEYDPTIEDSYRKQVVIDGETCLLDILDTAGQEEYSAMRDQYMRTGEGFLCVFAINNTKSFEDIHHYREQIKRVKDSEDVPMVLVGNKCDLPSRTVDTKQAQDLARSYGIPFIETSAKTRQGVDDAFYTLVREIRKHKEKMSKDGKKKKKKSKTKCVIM
KRAS WT-cRAF, sequence (P62937 whole entry): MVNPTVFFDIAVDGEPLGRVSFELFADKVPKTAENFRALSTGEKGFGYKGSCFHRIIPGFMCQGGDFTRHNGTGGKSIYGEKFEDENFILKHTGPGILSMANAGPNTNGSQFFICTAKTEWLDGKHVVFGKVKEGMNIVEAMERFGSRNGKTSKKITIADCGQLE
Method: (§3) The plate was centrifuged at 1000 rpm for 1 min and then incubated in the thermostatic incubator at 20 °C for 30 min. […] The plate was centrifuged at 1000 rpm for 1 min and then incubated in the thermostatic incubator at 20 °C for 60 min. […] The working solution was added to the aforementioned assay plate at 5 µL/well. The plate was centrifuged at 1000 rpm for 1 min and then incubated in the thermostatic incubator at 20 °C for 60 min.

[4] = molecular target: KRAS G12V-cRAF (Homo sapiens, UniProt P01116+P62937, G12V); test: Assay for binding of KRAS to cRAF (HTRF, with Cyclophilin A), KRAS G12V
KRAS G12V-cRAF, sequence (P01116 1-188 isoform P01116-2 G12V): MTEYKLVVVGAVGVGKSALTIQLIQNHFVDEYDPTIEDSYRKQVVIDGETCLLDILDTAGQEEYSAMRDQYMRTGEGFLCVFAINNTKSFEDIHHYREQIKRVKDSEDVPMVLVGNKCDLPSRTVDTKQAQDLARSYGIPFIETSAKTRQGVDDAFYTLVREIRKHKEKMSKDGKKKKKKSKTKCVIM
KRAS G12V-cRAF, sequence (P62937 whole entry): as the sequence (P62937 whole entry) above
Method: as §3

[5] = test system: H441 p-ERK; test: Cell p-ERK assay (HTRF), NCI-H441 cells; assay type: cell-based, human; conditions: NCI-H441 cells (KRAS G12V), 3 h incubation
Procedure, shortened: (§1)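 Phospho-ERK (T202/Y204) was measured by HTRF in lysates after 3 h compound treatment at 37 °C. Cells had been plated the previous day at 20000 per well for NCI-H441 and 10000 per well for AsPC-1. Four-parameter dose-response fitting of % inhibition gave IC50 values.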

[6] = test system: AsPC-1 p-ERK; test: Cell p-ERK assay (HTRF), AsPC-1 cells; assay type: cell-based, human; conditions: AsPC-1 cells (KRAS G12D), 3 h incubation, read-out: AsPC-1 p-ERK IC50
Procedure, shortened: as §1

[7] = test system: NCI-H441 cells; test: 3D cell proliferation assay (CellTiter Glo-3D), NCI-H441; assay type: cell-based, human; conditions: NCI-H441 cells (KRAS G12V), 2% FBS, 5 days, read-out: H441 AP IC50
Procedure, shortened: (§2)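 IC50 values come from four-parameter fits of inhibition rate against log compound concentration, using CellTiter-Glo luminescence read after 5 days' exposure. AsPC-1 and NCI-H441 were plated at 800 cells per well in low-serum (2% FBS) medium. Compound was dosed the day after seeding, with incubation at 37 °C, 5% CO2.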

[8] = test system: AsPC-1 cells; test: 3D cell proliferation assay (CellTiter Glo-3D), AsPC-1; assay type: cell-based, human; conditions: AsPC-1 cells (KRAS G12D), 3D, 2% FBS, 5 days, read-out: AsPC-1 AP IC50
Procedure, shortened: as §2

[9] = read-out: KRAS WT-cRAF binding assay, GPPNP-KRAS WT, IC50 values
[10] = read-out: KRAS G12V-cRAF binding assay, GPPNP-KRAS G12V, IC50 values
[11] = KRAS WT-cRAF binding assay(nM), GPPNP-KRAS WT, IC50 values
[12] = KRAS G12V-cRAF binding assay(nM), GPPNP-KRAS G12V, IC50 values

SMILES: CCn1c(-c2cc(C#CCN3CCC(O)CC3)cnc2C(C)OC)c2c3cc(ccc31)-c1csc(n1)CC(NC(=O)C1C(C)C1C)C(=O)N1CCCC(N1)C(=O)OCC(C)(C)C2 (atropisomer, axis not shown; (Ra)) [Compound Z11, (1r,2R,3S)-N-((6^3S,4S,Z)-1^1-ethyl-(Ra)-1^2-(5-(3-(4-hydroxypiperidin-1-yl)prop-1-yn-1-yl)-2-((S)-1-methoxyethyl)pyridin-3-yl)-10,10-dimethyl-5,7-dioxo-6^1,6^2,6^3,6^4,6^5,6^6-hexahydro-1^1H-8-oxa-2(4,2)-thiazola-1(5,3)-indola-6(1,3)-pyridazinacycloundecaphane-4-yl)-2,3-dimethylcyclopropane-1-carboxamide]
- IC50 ([5]; Homo sapiens): 0.21 nM
- IC50 ([6]; Homo sapiens, ASPC1): 0.11 nM
- IC50 ([7]; Homo sapiens, 120 h): 0.1 nM
- IC50 ([8]; Homo sapiens, ASPC1, 120 h): 0.15 nM
- half-life at 1 µM [1]: 30.3 min
- CLint scaled [1]: 3.17 L/h/kg
- IC50 [3, 11]: 27.7 nM
- IC50 [4, 12]: 12.3 nM

SMILES: CCn1c(-c2cc(C#CCN3CCC(C#N)(CN)CC3)cnc2[C@H](C)OC)c2c3cc(ccc31)-c1csc(n1)C[C@H](NC(=O)[C@H]1[C@@H]3COC[C@@H]31)C(=O)N1CCC[C@H](N1)C(=O)OCC(C)(C)C2 (atropisomer, axis not shown; (Ra)) [Compound Z52, (1R,5S,6r)-N-((6^3S,4S,Z)-(Ra)-1^2-(5-(3-(4-(aminomethyl)-4-cyanopiperidin-1-yl)prop-1-yn-1-yl)-2-((S)-1-methoxyethyl)-pyridin-3-yl)-1^1-ethyl-10,10-dimethyl-5,7-dioxo-6^1,6^2,6^3,6^4,6^5,6^6-hexahydro-1^1H-8-oxa-2(4,2)-thiazola-1(5,3)-indola-6(1,3)-pyridazinacycloundecaphane-4-yl)-3-oxabicyclo[3.1.0]hexane-6-carboxamide]
- IC50 [5]: 0.13 nM
- IC50 [6]: 0.06 nM
- IC50 [7]: 0.17 nM
- IC50 [8]: 0.08 nM
- T1/2 [1]: 47.3 min
- IC50 [3, 9]: 16.5 nM
- IC50 [4, 10]: 13.3 nM

SMILES: CCn1c(-c2cc(C#CCN3CCC(C#N)(CN)CC3)cnc2[C@H](C)OC)c2c3cc(ccc31)-c1csc(n1)C[C@H](NC(=O)[C@H]1[C@H](C)[C@@H]1C)C(=O)N1CCC[C@H](N1)C(=O)OCC(C)(C)C2 (atropisomer, axis not shown; (Ra)) [Compound Z181, (1r,2R,3S)-N-((6^3S,4S,Z)-1^2-(Ra)-(5-(3-(4-(aminomethyl)-4-cyanopiperidin-1-yl)prop-1-yn-1-yl)-2-((S)-1-methoxyethyl)pyridin-3-yl)-1^1-ethyl-10,10-dimethyl-5,7-dioxo-6^1,6^2,6^3,6^4,6^5,6^6-hexahydro-1^1H-8-oxa-2(4,2)-thiazola-1(5,3)-indola-6(1,3)-pyridazinacycloundecaphan-4-yl)-2,3-dimethylcyclopropane-1-carboxamide]
- half-life [1]: 43.4 min
- CLint scaled [1]: 2.21 L/h/kg
- IC50 [3, 9]: 36.4 nM
- IC50 [4, 10]: 13.1 nM

SMILES: CCn1c(-c2cc(C#CCN3CCC(C#N)(CN)CC3)cnc2[C@H](C)OC)c2c3cc(ccc31)-c1coc(n1)C[C@H](NC(=O)[C@H]1[C@H](C)[C@@H]1C)C(=O)N1CCC[C@H](N1)C(=O)OCC(C)(C)C2 (atropisomer, axis not shown; (Ra)) [Compound Z182]
- half-life [1]: 16.4 min
- CLint scaled [1]: 5.87 L/h/kg
- IC50 [3, 9]: 34.5 nM
- IC50 [4, 10]: 13 nM

Continued, values first:

- half-life [1]: 9.8 min
- CLint scaled [1]: 9.85 L/h/kg
- solubility at 24 h ([2]; ph 7.4 medium, pH 7.4, pH 7.4 medium): 1.5 µg/mL (≈ 1.68 µM)
- IC50 [3, 9]: 48.6 nM
- IC50 [4, 10]: 10.9 nM
SMILES: CCn1c(-c2cc(C#CCN3CCN(C(C)=O)CC3)cnc2[C@H](C)OC)c2c3cc(ccc31)-c1csc(n1)C[C@H](NC(=O)[C@H]1[C@H](C)[C@@H]1C)C(=O)N1CCC[C@H](N1)C(=O)OCC(C)(C)C2 (atropisomer, axis not shown) [Control compound 2]

- IC50 ([5]; Homo sapiens): 0.12 nM
- IC50 ([6]; Homo sapiens, ASPC1): 0.07 nM
- IC50 ([7]; Homo sapiens, 120 h): 0.14 nM
- IC50 ([8]; Homo sapiens, ASPC1, 120 h): 0.09 nM
- half-life at 1 µM [1]: 23.3 min
- CLint scaled [1]: 4.13 L/h/kg
- IC50 [3, 11]: 13.9 nM
- IC50 [4, 12]: 11.9 nM
SMILES: CCn1c(-c2cc(C#CCN3CCC(C#N)CC3)cnc2C(C)OC)c2c3cc(ccc31)-c1csc(n1)CC(NC(=O)C1C3COCC31)C(=O)N1CCCC(N1)C(=O)OCC(C)(C)C2 (atropisomer, axis not shown; (Ra)) [Compound Z56, (1R,5S,6r)-N-((6^3S,4S,Z)-(Ra)-1^2-(5-(3-(4-cyanopiperidin-1-yl)prop-1-yn-1-yl)-2-((S)-1-methoxyethyl)-pyridin-3-yl)-1^1-ethyl-10,10-dimethyl-5,7-dioxo-6^1,6^2,6^3,6^4,6^5,6^6-hexahydro-1^1H-8-oxa-2(4,2)-thiazola-1(5,3)-indola-6(1,3)-pyridazinacycloundecaphane-4-yl)-3-oxabicyclo[3.1.0]hexane-6-carboxamide]

- IC50 [5]: 0.2 nM
- IC50 [6]: 0.1 nM
- IC50 [7]: 0.37 nM
- IC50 [8]: 0.12 nM
- T1/2 [1]: 19.6 min
- Solubility at pH 7.4 (µg/mL) ([2]; pH 7.4 medium): 26.76 µg/mL
- IC50 [3, 9]: 38.9 nM
- IC50 [4, 10]: 12.9 nM
SMILES: CCn1c(-c2cc(C#CCN3CCC(C#N)(CN)CC3)cnc2[C@H](C)OC)c2c3cc(ccc31)-c1coc(n1)C[C@H](NC(=O)[C@H]1[C@@H]3COC[C@@H]31)C(=O)N1CCC[C@H](N1)C(=O)OCC(C)(C)C2 (atropisomer, axis not shown; (Ra)) [Compound Z166, (1R,5S,6r)-N-((6^3S,4S,Z)-(Ra)-1^2-(5-(3-(4-(aminomethyl)-4-cyanopiperidin-1-yl)prop-1-yn-1-yl)-2-((S)-1-methoxyethyl)pyridin-3-yl)-1^1-ethyl-10,10-dimethyl-5,7-dioxo-6^1,6^2,6^3,6^4,6^5,6^6-hexahydro-1^1H-8-oxa-2(4,2)-oxazola-1(5,3)-indola-6(1,3)-pyridazinacycloundecaphane-4-yl)-3-oxabicyclo[3.1.0]hexane-6-carboxamide]

- half-life [1]: 18.1 min
- CLint scaled [1]: 5.31 L/h/kg
- IC50 [3, 9]: 14.8 nM
- IC50 [4, 10]: 5.48 nM
SMILES: CCn1c(-c2cc(C#CCN3CCC(C#N)CC3)cnc2[C@H](C)OC)c2c3cc(ccc31)-c1csc(n1)C[C@H](NC(=O)[C@H]1[C@H](C)[C@@H]1C)C(=O)N1CCC[C@H](N1)C(=O)OCC(C)(C)C2 (atropisomer, axis not shown; (Ra)) [Compound Z282, (1r,2R,3S)-N-((6^3S,4S,Z)-1^2-(5-(3-(4-cyanopiperidin-1-yl)prop-1-yn-1-yl)-(Ra)-2-((S)-1-methoxyethyl)pyridin-3-yl)-1^1-ethyl-10,10-dimethyl-5,7-dioxo-6^1,6^2,6^3,6^4,6^5,6^6-hexahydro-1^1H-8-oxa-2(4,2)-thiazola-1(5,3)-indola-6(1,3)-pyridazinacycloundecaphan-4-yl)-2,3-dimethylcyclopropane-1-carboxamide]

Source: patent publication EP4775582A1, “MACROCYCLIC COMPOUND AND ANTIBODY-DRUG CONJUGATE THEREOF” (Genfleet Therapeutics (Shanghai) Inc., priority 2023, dated 2025)
